According to ChEMBL document CHEMBL1201862, “PubChem BioAssay data set” (2004):
Active and inactive are the calls of the source.

Tests used:
Protein Wnt-3a = Protein Wnt-3a (Mus musculus, UniProt P27467); assay: antagonism of Wnt3a pathway luciferase reporter – Wnt-LIGHT cells, luminescence, selectivity assay for Gli-SUFU antagonist project, dose response (AID 651570); format: functional; conditions: read-out: IC50_Mean;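 also: Wnt-LIGHT reporter cells stimulated with conditioned medium from Wnt3a-producing cells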
[1] = target: T1, Sentrin-specific protease 1 (Homo sapiens, UniProt Q9P0U3); assay: Dose response confirmation of small molecule inhibitors of the catalytic domain of the SUMO protease, SENP1 in a FRET assay.; format: functional; conditions: read-out: IC50_Mean
T1 sequence (Q9P0U3 whole entry): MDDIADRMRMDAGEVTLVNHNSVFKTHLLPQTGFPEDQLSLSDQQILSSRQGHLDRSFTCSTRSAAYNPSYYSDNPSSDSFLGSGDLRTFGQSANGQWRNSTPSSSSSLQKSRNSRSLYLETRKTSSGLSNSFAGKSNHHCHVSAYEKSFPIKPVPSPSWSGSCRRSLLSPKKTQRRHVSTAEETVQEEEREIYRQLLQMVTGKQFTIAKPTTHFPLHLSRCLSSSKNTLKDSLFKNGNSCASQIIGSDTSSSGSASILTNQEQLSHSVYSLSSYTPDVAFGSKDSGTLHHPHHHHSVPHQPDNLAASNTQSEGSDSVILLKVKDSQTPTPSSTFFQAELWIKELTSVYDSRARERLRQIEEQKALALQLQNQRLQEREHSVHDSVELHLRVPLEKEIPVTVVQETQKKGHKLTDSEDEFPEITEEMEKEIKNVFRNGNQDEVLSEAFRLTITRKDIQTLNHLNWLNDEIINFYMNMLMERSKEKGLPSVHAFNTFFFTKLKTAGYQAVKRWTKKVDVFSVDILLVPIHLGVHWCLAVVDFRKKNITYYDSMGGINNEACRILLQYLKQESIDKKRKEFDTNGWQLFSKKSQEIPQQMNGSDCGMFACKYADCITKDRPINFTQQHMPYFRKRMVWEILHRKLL

[2] = target: T1, Sentrin-specific protease 1; assay: SENP1 catalytic domain blockers, concentration series – biochemical, kinetic FRET, dose response (AID 651697); format: functional; conditions: read-out: IC50_Mean
[3] = target: Nuclear receptor subfamily 5 group A member 2 (Homo sapiens, UniProt O00482); format: functional, cell-based;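 also: HEK293T cells transfected with LRH-1 and a StAR promoter luciferase reporter; potency for inhibitors that lower LRH-1 driven reporter light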
Steroidogenic factor 1 = Steroidogenic factor 1 (Homo sapiens, UniProt Q13285); assay: Counterscreen for inverse agonists of the liver receptor homolog-1 (LRH-1; NR5A2): Luminescence-based cell-based high throughput dose response assay to identify inverse agonists of the Steroidogenic Factor 1 Nuclear Receptor (SF1; NR5A1).; format: functional
[4] = nonselective StAR promoter luciferase inhibitors – cell-based, luminescence, luciferase reporter, counter-screen for LRH-1 inverse agonist project, dose response (AID 651969); format: functional
[5] = target: T2, Sentrin-specific protease 6 (Homo sapiens, UniProt Q9GZR1); format: functional;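 also: Luminescence-based dose-response confirmatory assay of SENP6 inhibition, following up an ultra-high-throughput screen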
T2 sequence (Q9GZR1 whole entry): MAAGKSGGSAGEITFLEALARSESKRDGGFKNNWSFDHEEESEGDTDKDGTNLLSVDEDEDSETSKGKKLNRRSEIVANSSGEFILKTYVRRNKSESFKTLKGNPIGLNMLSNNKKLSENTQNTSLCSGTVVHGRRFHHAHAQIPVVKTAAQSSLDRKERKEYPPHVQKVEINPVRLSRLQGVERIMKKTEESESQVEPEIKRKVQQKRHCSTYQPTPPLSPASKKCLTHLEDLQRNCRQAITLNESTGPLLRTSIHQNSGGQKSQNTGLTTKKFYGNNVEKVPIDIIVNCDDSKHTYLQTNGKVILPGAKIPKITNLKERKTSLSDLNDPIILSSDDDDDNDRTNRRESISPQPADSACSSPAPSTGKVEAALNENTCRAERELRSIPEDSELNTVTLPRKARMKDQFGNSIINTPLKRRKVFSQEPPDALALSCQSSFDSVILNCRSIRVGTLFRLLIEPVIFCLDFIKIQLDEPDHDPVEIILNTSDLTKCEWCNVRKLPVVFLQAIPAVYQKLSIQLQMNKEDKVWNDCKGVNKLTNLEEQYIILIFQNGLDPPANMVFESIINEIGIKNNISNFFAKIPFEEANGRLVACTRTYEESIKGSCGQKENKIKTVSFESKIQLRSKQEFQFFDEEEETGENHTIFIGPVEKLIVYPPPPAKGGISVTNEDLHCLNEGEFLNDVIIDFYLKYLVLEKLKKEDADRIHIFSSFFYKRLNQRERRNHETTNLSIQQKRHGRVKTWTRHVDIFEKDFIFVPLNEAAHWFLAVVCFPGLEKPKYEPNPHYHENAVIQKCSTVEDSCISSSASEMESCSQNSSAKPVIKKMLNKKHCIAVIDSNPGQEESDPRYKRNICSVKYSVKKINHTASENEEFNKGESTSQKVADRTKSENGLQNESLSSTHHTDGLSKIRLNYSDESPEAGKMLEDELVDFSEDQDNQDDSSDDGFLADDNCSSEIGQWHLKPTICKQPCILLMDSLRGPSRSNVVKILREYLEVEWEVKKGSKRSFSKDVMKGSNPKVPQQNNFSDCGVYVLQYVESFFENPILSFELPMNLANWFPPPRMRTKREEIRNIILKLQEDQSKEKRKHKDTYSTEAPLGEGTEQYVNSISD

Caspase-3 = target: T3, Caspase-3 (Homo sapiens, UniProt P42574); format: functional;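 also: Dose-response selectivity test against caspase-3 for candidate inhibitors of sentrin-specific proteases (SENPs)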
T3 sequence (P42574 whole entry): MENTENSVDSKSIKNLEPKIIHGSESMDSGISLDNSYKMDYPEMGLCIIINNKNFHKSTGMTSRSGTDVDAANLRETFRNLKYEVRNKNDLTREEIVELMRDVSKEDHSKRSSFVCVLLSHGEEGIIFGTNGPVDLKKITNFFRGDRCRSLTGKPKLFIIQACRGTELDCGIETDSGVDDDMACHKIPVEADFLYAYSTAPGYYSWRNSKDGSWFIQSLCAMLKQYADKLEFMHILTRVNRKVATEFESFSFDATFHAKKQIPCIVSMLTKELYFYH

H4 = assay: Luminescence Cell-Based Dose Response HTS to Identify Activators of 5'UTR Stem-Loop Driven Prion Protein mRNA Translation in H4 Neuroglioblastoma Cells. [Related pubchem assays: 1829 (Project Summary), 1814 (Primary HTS)]; format: functional; conditions: Homo sapiens
[6] = Luminescence Cell-Based Dose Response HTS to Identify Activators of Luciferase Translation or Activity in H4 […] Cells. [Related pubchem assays: 1829 (Project Summary), 1814 (Primary HTS)]; format: functional
[7] = target: T4, Sentrin-specific protease 7 (Homo sapiens, UniProt Q9BQF6); format: functional;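 also: Luminescence-based dose-response confirmation of ultra-high-throughput screening hits, measuring inhibition of SENP7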
T4 sequence (Q9BQF6 whole entry): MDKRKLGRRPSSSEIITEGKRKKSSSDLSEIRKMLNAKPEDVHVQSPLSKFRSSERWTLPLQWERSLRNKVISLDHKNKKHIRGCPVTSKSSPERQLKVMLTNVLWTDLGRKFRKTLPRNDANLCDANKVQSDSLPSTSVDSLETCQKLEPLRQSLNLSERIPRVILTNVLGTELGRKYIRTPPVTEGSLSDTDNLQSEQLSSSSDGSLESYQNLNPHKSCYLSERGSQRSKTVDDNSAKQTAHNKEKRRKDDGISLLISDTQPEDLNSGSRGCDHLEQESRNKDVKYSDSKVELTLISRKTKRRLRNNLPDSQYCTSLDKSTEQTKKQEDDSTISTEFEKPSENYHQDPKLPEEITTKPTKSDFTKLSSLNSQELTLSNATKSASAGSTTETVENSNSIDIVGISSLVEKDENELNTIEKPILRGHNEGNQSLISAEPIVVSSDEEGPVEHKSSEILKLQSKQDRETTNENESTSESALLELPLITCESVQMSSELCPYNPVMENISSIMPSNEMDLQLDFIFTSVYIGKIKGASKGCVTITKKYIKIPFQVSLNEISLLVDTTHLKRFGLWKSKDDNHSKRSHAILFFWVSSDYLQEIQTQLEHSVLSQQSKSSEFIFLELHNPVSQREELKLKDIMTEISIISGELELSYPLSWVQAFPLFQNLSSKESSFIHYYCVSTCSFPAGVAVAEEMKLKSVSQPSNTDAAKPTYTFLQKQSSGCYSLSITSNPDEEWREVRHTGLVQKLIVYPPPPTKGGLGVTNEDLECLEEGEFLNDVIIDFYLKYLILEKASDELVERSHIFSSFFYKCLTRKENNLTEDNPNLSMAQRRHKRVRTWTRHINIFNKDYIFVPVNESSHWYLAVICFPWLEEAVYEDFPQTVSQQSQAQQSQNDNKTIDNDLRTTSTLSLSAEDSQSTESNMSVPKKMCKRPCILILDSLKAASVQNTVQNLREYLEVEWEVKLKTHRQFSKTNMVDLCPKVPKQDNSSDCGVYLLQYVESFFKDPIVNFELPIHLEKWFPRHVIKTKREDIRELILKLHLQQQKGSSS

[8] = target: T5, Sentrin-specific protease 8 (Homo sapiens, UniProt Q96LD8); format: functional;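 also: luminescence read-out of SENP8 inhibition, dose-response confirmation following an ultra-high-throughput screen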
T5 sequence (Q96LD8 whole entry): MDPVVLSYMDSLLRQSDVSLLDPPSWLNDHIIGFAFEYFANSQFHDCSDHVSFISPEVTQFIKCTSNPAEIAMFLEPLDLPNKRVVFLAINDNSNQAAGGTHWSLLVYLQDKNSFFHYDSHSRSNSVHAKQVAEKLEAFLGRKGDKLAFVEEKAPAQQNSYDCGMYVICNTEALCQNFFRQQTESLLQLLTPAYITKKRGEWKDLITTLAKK

Phospholipase A2 = Phospholipase A2 (Homo sapiens, UniProt P04054); format: functional;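 also: confirmatory dose-response counterscreen on phospholipase A2, testing hits that came from an ultra-high-throughput screen for ATG4B inhibitors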
Cysteine protease ATG4B = target: T6, Cysteine protease ATG4B (Homo sapiens, UniProt Q9Y4P1); format: functional;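 also: Fluorescence-based dose-response confirmation assay measuring inhibition of ATG4B activity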
T6 sequence (Q9Y4P1 whole entry): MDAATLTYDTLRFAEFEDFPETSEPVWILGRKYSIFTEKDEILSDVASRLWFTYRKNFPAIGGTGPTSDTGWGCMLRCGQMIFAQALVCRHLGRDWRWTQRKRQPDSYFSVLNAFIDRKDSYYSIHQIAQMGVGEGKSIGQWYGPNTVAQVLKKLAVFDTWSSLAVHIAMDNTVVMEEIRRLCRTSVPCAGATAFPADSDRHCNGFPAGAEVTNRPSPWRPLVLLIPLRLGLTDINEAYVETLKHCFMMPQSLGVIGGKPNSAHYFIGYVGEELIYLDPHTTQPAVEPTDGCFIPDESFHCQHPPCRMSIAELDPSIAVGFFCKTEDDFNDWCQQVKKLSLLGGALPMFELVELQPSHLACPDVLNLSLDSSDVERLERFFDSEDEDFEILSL

Chain of Protein Wnt-3a (P27467 whole entry, the tested form may be a part): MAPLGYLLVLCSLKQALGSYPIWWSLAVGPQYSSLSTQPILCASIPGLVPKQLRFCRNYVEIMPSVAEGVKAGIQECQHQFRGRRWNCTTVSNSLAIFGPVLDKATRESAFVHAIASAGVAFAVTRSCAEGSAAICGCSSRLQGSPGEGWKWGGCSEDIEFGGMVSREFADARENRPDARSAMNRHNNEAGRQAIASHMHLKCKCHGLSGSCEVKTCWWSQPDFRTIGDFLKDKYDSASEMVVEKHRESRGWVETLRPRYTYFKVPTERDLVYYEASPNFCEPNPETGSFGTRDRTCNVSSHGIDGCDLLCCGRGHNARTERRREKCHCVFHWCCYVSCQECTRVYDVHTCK
Chain of Steroidogenic factor 1 (Q13285 whole entry): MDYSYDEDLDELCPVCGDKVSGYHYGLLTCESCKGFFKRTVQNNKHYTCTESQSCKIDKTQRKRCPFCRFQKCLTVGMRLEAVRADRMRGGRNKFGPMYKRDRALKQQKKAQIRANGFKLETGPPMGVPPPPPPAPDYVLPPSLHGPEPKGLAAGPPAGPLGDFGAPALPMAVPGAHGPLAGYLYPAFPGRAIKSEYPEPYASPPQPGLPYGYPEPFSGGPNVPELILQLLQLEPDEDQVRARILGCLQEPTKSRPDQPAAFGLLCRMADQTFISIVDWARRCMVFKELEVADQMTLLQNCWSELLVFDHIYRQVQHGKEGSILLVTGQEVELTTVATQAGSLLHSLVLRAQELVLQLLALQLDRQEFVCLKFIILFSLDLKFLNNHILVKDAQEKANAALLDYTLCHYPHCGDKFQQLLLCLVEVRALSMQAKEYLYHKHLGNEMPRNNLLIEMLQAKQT
Chain of Phospholipase A2 (P04054 whole entry): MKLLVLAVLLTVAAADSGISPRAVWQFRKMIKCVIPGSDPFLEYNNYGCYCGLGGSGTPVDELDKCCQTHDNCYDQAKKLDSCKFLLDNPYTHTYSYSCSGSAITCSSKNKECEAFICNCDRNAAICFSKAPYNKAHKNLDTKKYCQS
Chain of Nuclear receptor subfamily 5 group A member 2 (O00482 whole entry): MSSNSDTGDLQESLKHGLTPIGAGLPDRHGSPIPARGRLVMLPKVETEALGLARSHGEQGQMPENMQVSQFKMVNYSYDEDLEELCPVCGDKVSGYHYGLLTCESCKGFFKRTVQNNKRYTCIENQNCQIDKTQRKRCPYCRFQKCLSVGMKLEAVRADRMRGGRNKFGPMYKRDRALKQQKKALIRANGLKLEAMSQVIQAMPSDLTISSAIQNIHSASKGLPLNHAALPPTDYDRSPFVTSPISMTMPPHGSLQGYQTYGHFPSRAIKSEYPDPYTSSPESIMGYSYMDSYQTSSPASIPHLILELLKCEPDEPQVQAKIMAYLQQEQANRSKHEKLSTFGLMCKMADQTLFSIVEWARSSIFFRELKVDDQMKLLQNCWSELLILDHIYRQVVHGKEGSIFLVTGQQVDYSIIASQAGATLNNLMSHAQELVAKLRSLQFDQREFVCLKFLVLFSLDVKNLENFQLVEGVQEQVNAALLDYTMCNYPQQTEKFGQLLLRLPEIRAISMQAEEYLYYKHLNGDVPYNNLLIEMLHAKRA

Q: For O=[N+]([O-])c1ccc(N2CCN(C(=S)NCc3ccc(Cl)cc3)CC2)cc1, which IC50 (Protein Wnt-3a) is on record?
A: The IC50 was 5.08 µM (active).

Q: Which results are given for Cc1ccc2cc3c(N)c(C(=O)N4CCOCC4)sc3nc2c1?
A: IC50 [1]: 30.6 µM (inactive); IC50 [2]: 35.9 µM (inactive)

Q: What does the source list for Cc1c(NC(=S)NC(=O)c2ccc(Cl)cc2)c(=O)n(-c2ccccc2)n1C?
A: IC50 [3]: 12 µM (inactive); IC50 (Steroidogenic factor 1): 35.9 µM (inactive); IC50 [4]: 35.9 µM (inactive)

Q: For Clc1nnc(N/N=C/c2ccccc2)c2ccccc12, which IC50 [5] is on record?
A: Its IC50 is 5.57 µM (active).

Q: What about the IC50 (Caspase-3) of the same compound?
A: The IC50 was 6.38 µM (active).

Q: What about the EC50 (H4) of the same compound?
A: The EC50 was 5.27 µM (active).

Q: What about the EC50 [6] of the same compound?
A: Its EC50 is 0.694 µM (active).

Q: And the IC50 [7]?
A: Its IC50 is 2.83 µM (active).

Q: What about the IC50 [8] of the same compound?
A: Its IC50 is 8.2 µM (active).

Q: For Clc1ccc(-c2c[n+](-c3ccccc3)c3n2CCS3)cc1, which IC50 (Protein Wnt-3a) is on record?
A: The IC50 was 22.5 µM (inactive).

Q: What does the source list for CC/C=C\C/C=C\C/C=C\CCCCCCCC(=O)O [LINOLENIC ACID]?
A: IC50 (Phospholipase A2): 22.3 µM (inactive); IC50 (Cysteine protease ATG4B): 15.3 µM (active)
